Values of other authors in patent US11147884B2, “Inhibitors of NHE-mediated antiport” (Ardelyx, Inc., priority 2017, dated 2021).

Details: human absorption data, from Ertl et al., J. Med. Chem., 2000; cited from earlier work

SMILES | $ FA
C=CCc1ccccc1OCC(O)CNC(C)C (stereo not shown) [alprenolol] | 96
CC(=O)Nc1ccc(OCC(O)CNC(C)C)cc1 (stereo not shown) [practolol] | 95
OC[C@H]1O[C@@H](O[C@@H]2[C@@H](CO)OC(O)(CO)[C@H]2O)[C@H](O)[C@@H](O)[C@H]1O (mixture of isomers) [lactulose] | 0.6
O=C(O)c1cc(/N=N/c2ccc(S(=O)(=O)Nc3ccccn3)cc2)ccc1O [sulfasalazine] | 12
OC[C@@H](O)[C@@H](O)[C@H](O)[C@H](O)CO [mannitol] | 26
O=C(O)P(=O)(O)O [foscarnet] | 17
NC[C@H]1CC[C@H](C(=O)O)CC1 [tranexamic acid] | 55
C=CCOc1ccccc1OCC(O)CNC(C)C (stereo not shown) [oxyprenolol] | 97
Cc1ccccc1N1C(=O)c2cc(S(N)(=O)=O)c(Cl)cc2NC1C (stereo not shown) [metolazone] | 64
OC[C@H]1O[C@H](OC[C@H]2O[C@H](O[C@]3(CO)O[C@H](CO)[C@@H](O)[C@@H]3O)[C@H](O)[C@@H](O)[C@@H]2O)[C@H](O)[C@@H](O)[C@H]1O [raffinose] | 0.3
O=C(O)c1cc(/N=N/c2ccc(O)c(C(=O)O)c2)ccc1O [olsalazine] | 2.3
CC(C)NCC(O)COc1cccc2[nH]ccc12 (stereo not shown) [pindolol] | 92
CCN1CCCC1CNC(=O)c1cc(S(N)(=O)=O)ccc1OC (stereo not shown) [sulpiride] | 36
